One data set concerns Entamoeba histolytica. Description: In vitro growth inhibition against Entamoeba histolytica. Type of data set: functional, organism-based.
Data set [1] in a line: Therapeutic index was expressed as ratio of LD50 for KB cell line to IC50 against Entamoeba histolytica. The format is cell-based. Particulars: human, KB cells; read-out: TI.
Data set [2] can be described thus: Therapeutic index was expressed as ratio of LD50 for KB cell line to IC50 against Plasmodium falciparum. The format is cell-based. Particulars: human, KB cells; read-out: TI.
Another data set is described as follows: in vitro. The following applies: human, KB cells (nasopharyngeal carcinoma).
Data set [3] relates to Plasmodium falciparum. Kind of data set: microbe, parasite or virus in culture.
Description: In vitro growth inhibition against Plasmodium falciparum
Data set [4] concerns Cricetinae gen. sp. Kind of data set: Percent decrease of amebic liver abscess (mg) formation in Entamoeba histolytica infected hamsters (treated at 10 mg/kg ip once a day for 5 days). The format is functional. Particulars: route intraperitoneal.
The subject of data set [5] is Cricetinae gen. sp. Kind of data set: Percent decrease of normal liver weight (mg) in Entamoeba histolytica infected hamsters (treated at 10 mg/kg ip once a day for 5 days). The format is functional, Cricetulus griseus. Particulars: route intraperitoneal.
Data set [6] has as its system Cricetinae gen. sp. Description: Mean effect on amebic liver abscess (mg) formation in Entamoeba histolytica infected hamsters (treated at 10 mg/kg ip once a day for 5 days). Type of data set: functional, Cricetulus griseus. The following applies: route intraperitoneal.
For data set [7], the system named is Cricetinae gen. sp. Kind of data set: Mean effect on normal liver weight (mg) in Entamoeba histolytica infected hamsters (treated at 10 mg/kg ip once a day for 5 days). The following applies: route intraperitoneal. Type of data set: functional, Cricetulus griseus.
A short description of data set [8]: Inhibitory activity against Entamoeba histolytica pyrophosphate-dependent phosphofructokinase (PFK). Type of data set: functional.
Data set [9] deals with Mus musculus. Description: Mean reduction in parasitaemia of Plasmodium berghei ANKA suppressive test in mice (Mus musculus) (in vivo) at 25 mg/kg scheduled for 4 days. The format is functional.
A short description of data set [10]: Inhibitory activity against Entamoeba histolytica pyrophosphate-dependent phosphofructokinase (PFK) (Range is 600-1200). The format is functional.
In data set [11] the test system is Mus musculus. Kind of data set: Mean reduction in parasitaemia of Plasmodium berghei ANKA suppressive test in mice (Mus musculus) (in vivo) at 10 mg/kg scheduled for 2 days. Type of data set: functional.
Data set [12] has as its system Plasmodium falciparum. Kind of data set: Inhibitory activity against Plasmodium falciparum W2.
Data set [13] relates to Plasmodium falciparum. Kind of data set: Inhibitory activity against Plasmodium falciparum 3D7.
The subject of data set [14] is Plasmodium falciparum. Description: Inhibitory activity against Plasmodium falciparum Ghana.
Data set [15] concerns Mus musculus. Description: Mean reduction in parasitaemia of Plasmodium berghei ANKA suppressive test in mice (Mus musculus) (in vivo) at 10 mg/kg scheduled for 4 days. The format is functional.
Data set [16] is described as follows: Inhibitory activity against Entamoeba histolytica pyrophosphate-dependent phosphofructokinase (PFK) (Range is 2500-3000). Type of data set: functional.
A short description of data set [17]: Inhibitory activity against Entamoeba histolytica pyrophosphate-dependent phosphofructokinase (PFK) (Range is 900-1000). The format is functional.

Broadly, the IC50 is the concentration needed to halve the response being measured. Higher therefore signals lower potency. Broadly, the CC50 is the concentration that lowers cell viability or growth by half. High values mean better tolerance by the cells, low ones harm at low concentration.

Description for in vitro: Toxicity evaluated against human nasopharyngeal carcinoma KB cell line

Take `O=P(O)(O)C(Nc1ccc(-c2ccccc2)cc1)P(=O)(O)O`: the half-inhibitory concentration (IC50) in the data set on Entamoeba histolytica stood at 8.76 µM; in the data set with Plasmodium falciparum [3], 76.6 µM. Besides, the selectivity ratio in data set [1] was 56.5; in data set [2], 6.46. This compound registered a CC50 in the data set “in vitro” of 495 µM.

Consider `CCCCCCCCCCC(O)(P(=O)(O)O)P(=O)(O)O`, for which the values for the 50% inhibitory concentration (IC50) (in the data set with Entamoeba histolytica; in data set [8]; in the data set on Plasmodium falciparum [3]) were 11 µM, 20 µM and 5.23 µM, respectively. The Decrease turned out to be 68% with Cricetinae gen. sp. [4] and 9% in the data set on Cricetinae gen. sp. [5]. Besides, the Mean effect came out at 285 mg with Cricetinae gen. sp. [6] and 2163 mg in the data set with Cricetinae gen. sp. [7]. In “in vitro”, this compound gave a CC50 of more than 806 µM.

Regarding `CCCCCC(O)(P(=O)(O)O)P(=O)(O)O`, the half-inhibitory concentration (IC50) came to 157 µM with Entamoeba histolytica, 1200 µM in [10] and 5.53 µM with Plasmodium falciparum [3]. The Reduction in the data set on Mus musculus [9] turned out to be 80%. This compound came in with a CC50 in the data set “in vitro” of more than 993 µM.

Regarding `CN(CCc1ccccc1)CCC(O)(P(=O)(O)O)P(=O)(O)O`, the IC50 worked out at 143 µM in the data set with Entamoeba histolytica and 33.5 µM with Plasmodium falciparum [3]. The figures for the selectivity ratio in [1] and in data set [2] were more than 5.2 and more than 22, respectively. This compound yielded a CC50 in “in vitro” of more than 739 µM.

In the case of `O=P(O)(O)C(Nc1ccc(O)nc1)P(=O)(O)O`, the IC50 in the data set with Entamoeba histolytica came to 96.1 µM; in the data set on Plasmodium falciparum [3], 197 µM. In addition, the selectivity ratio in data set [1] was 2.67; in data set [2], 1.3. Also, in the data set “in vitro”, the CC50 worked out at 257 µM.

In the case of `CCCCCCCCCCCC(O)(P(=O)(O)O)P(=O)(O)O`, the concentration for half-maximal inhibition (IC50) with Entamoeba histolytica came out at 63.7 µM; in data set [8], 40 µM; with Plasmodium falciparum [3], 1.07 µM.

In the case of `CN(CCOc1ccccc1)CCC(O)(P(=O)(O)O)P(=O)(O)O`, the IC50 in the data set with Entamoeba histolytica was 6.49 µM; with Plasmodium falciparum [3] it was 31.4 µM. In addition, the Decrease is reported as -19% in the data set with Cricetinae gen. sp. [4] and 3% in the data set on Cricetinae gen. sp. [5]. Also, the values for the Mean effect with Cricetinae gen. sp. [6] and with Cricetinae gen. sp. [7] were 1058 mg and 2295 mg, respectively. The CC50 in “in vitro” is 312 µM.

On to `CCCCCCCCCC(O)(P(=O)(O)O)P(=O)(O)O`, for which the IC50 came out at 13.3 µM in the data set with Entamoeba histolytica; 70 µM in data set [8]; 0.83 µM in the data set with Plasmodium falciparum [3]; 1 µM in the data set on Plasmodium falciparum [12]; 0.83 µM with Plasmodium falciparum [13]; 2 µM in the data set on Plasmodium falciparum [14]. In the data set with Mus musculus [11], this compound returned a Reduction of 75%. Moreover, in the data set “in vitro”, the CC50 is more than 775 µM.

Take `CCCCCC(C)NC(P(=O)(O)O)P(=O)(O)O` (stereo unspecified): the IC50 with Entamoeba histolytica turned out to be 65.3 µM; with Plasmodium falciparum [3], 103 µM. Besides, the selectivity ratio in data set [1] was more than 15.1; in data set [2] it was more than 9.64. Also, the half-maximal cytotoxic concentration (CC50) in “in vitro” is more than 989 µM.

As to `CN(CCCc1ccccc1)CCC(O)(P(=O)(O)O)P(=O)(O)O`, the concentration for half-maximal inhibition (IC50) was determined as 45.1 µM in the data set with Entamoeba histolytica and 22.8 µM with Plasmodium falciparum [3]. The selectivity ratio in [1] turned out to be 8.4; in data set [2], 16.6. Also, it took 379 µM to reach half-maximal cytotoxicity in “in vitro” (CC50).

For `CCCCCCC(CCCC)C(O)(P(=O)(O)O)P(=O)(O)O` (stereo unspecified), the IC50 is 12.4 µM with Entamoeba histolytica, 1000 µM in [8] and more than 200 µM in the data set with Plasmodium falciparum [3]. Further, the selectivity ratio in data set [1] came out at 19.1. In “in vitro”, this compound yielded a half-maximal cytotoxic concentration (CC50) of 228 µM.

On to `CCCCCCc1ccc(NC(P(=O)(O)O)P(=O)(O)O)cc1`, for which the half-maximal inhibitory concentration (IC50) with Entamoeba histolytica stood at 132 µM; in the data set on Plasmodium falciparum [3], 46.3 µM. In addition, the selectivity ratio came out at 2.83 in data set [1] and 8.06 in data set [2]. In “in vitro”, this compound showed a 50% cytotoxic concentration (CC50) of 373 µM.

`O=P(O)(O)C(Nc1cc(Br)cc(Br)n1)P(=O)(O)O`: the values for the half-inhibitory concentration (IC50) with Entamoeba histolytica and with Plasmodium falciparum [3] were 28.5 µM and more than 200 µM, respectively. Moreover, the figures for the Decrease with Cricetinae gen. sp. [4] and in the data set on Cricetinae gen. sp. [5] were 14% and -22%, respectively. The Mean effect in the data set with Cricetinae gen. sp. [6] was 767 mg; with Cricetinae gen. sp. [7] it was 2883 mg. In addition, in data set [1], the selectivity ratio stood at 18.2. Also, the half-maximal cytotoxic concentration (CC50) in “in vitro” was found to be 520 µM.

For the compound `CCCCCCC(O)(P(=O)(O)O)P(=O)(O)O`, the concentration for half-maximal inhibition (IC50) with Entamoeba histolytica was determined as 29.5 µM; in data set [16] it was 3000 µM; in the data set on Plasmodium falciparum [3], 4.34 µM; with Plasmodium falciparum [12], 0.5 µM; in the data set with Plasmodium falciparum [13], 4.34 µM; in the data set on Plasmodium falciparum [14], 0.5 µM. The same compound returned a Reduction in the data set with Mus musculus [15] of 48%. This compound also gave a half-maximal cytotoxic concentration (CC50) in the data set “in vitro” of 109 µM.

Turning to `O=P(O)(O)C(Nc1cccc(-c2ccccc2)c1)P(=O)(O)O`, the results for the IC50 (in the data set with Entamoeba histolytica; in data set [8]; in the data set on Plasmodium falciparum [3]) were 6.6 µM, 90 µM and more than 200 µM, respectively. The Decrease is given as 36% in the data set with Cricetinae gen. sp. [4] and -4% in the data set on Cricetinae gen. sp. [5]. In addition, the values for the Mean effect in the data set with Cricetinae gen. sp. [6] and with Cricetinae gen. sp. [7] were 570 mg and 2459 mg, respectively. In “in vitro”, this compound returned a 50% cytotoxic concentration (CC50) of 749 µM.

As to `CCCCCCCCCCCCCC(O)(P(=O)(O)O)P(=O)(O)O`, the IC50 came out at 74 µM in the data set on Entamoeba histolytica and 2.12 µM in the data set with Plasmodium falciparum [3]. The selectivity ratio came out at 0.5 in [1] and 17.4 in data set [2]. The compound also registered a CC50 in “in vitro” of 36.8 µM.

`CCCCCCCCCCCCCCCC(O)(P(=O)(O)O)P(=O)(O)O`: the IC50 in the data set with Entamoeba histolytica was determined as 44 µM; in the data set with Plasmodium falciparum [3], 28.8 µM. In addition, the selectivity ratio in [1] was more than 16.6; in data set [2] it was more than 25.3. Besides, the cytotoxic concentration (CC50) in “in vitro” is more than 729 µM.

With `CCCCc1ccc(NC(P(=O)(O)O)P(=O)(O)O)cc1`, the values for the IC50 in the data set with Entamoeba histolytica and in the data set with Plasmodium falciparum [3] were 172 µM and 31.3 µM, respectively. For the same compound, the selectivity ratio in [1] came to 1.62; in data set [2], 8.89. Further, in the data set “in vitro”, half-maximal cytotoxicity (CC50) was put at 278 µM.

On to `CN(CCCCc1ccccc1)CCC(O)(P(=O)(O)O)P(=O)(O)O`, for which the IC50 is 23.4 µM in the data set on Entamoeba histolytica and 2.9 µM in the data set on Plasmodium falciparum [3]. For the same compound, the figures for the Decrease with Cricetinae gen. sp. [4] and in the data set with Cricetinae gen. sp. [5] were 89% and 26%, respectively. Moreover, the Mean effect in the data set on Cricetinae gen. sp. [6] worked out at 94 mg; in the data set on Cricetinae gen. sp. [7], 1756 mg. This compound also yielded a CC50 in “in vitro” of more than 690 µM.

Take `O=P(O)(O)C(O)(Cc1ccccc1)P(=O)(O)O`: the IC50 in the data set on Entamoeba histolytica was more than 200 µM; in data set [17] it was 1000 µM. Besides, in the data set on Mus musculus [9], the Reduction was determined as 64%. Also, the selectivity ratio in [2] is more than 121. For the same compound, in the data set “in vitro”, the 50% cytotoxic concentration (CC50) was more than 931 µM.

With `CCN(CC)C(P(=O)(O)O)P(=O)(O)O` [(DIETHYLAMINO)METHYLENEDIPHOSPHONIC ACID], the figures for the IC50 in the data set with Entamoeba histolytica and with Plasmodium falciparum [3] were 62.6 µM and 90.1 µM, respectively. Also, the selectivity ratio turned out to be 12.9 in data set [1] and 8.98 in [2].

For `CCCCCCCCCNC(P(=O)(O)O)P(=O)(O)O` [(NONYLAMINO)METHYLENEDIPHOSPHONIC ACID], the IC50 with Entamoeba histolytica amounted to 136 µM; with Plasmodium falciparum [3], 112 µM. The selectivity ratio in data set [1] is more than 6.76; in [2], more than 8.18. The compound also gave a cytotoxic concentration (CC50) in “in vitro” of more than 919 µM.

`CCCCCCCCNC(P(=O)(O)O)P(=O)(O)O` [(OCTYLAMINO)METHYLENEDIPHOSPHONIC ACID]: the results for the IC50 (with Entamoeba histolytica; in data set [8]; with Plasmodium falciparum [3]) were 31.1 µM, more than 3000 µM and 13.3 µM, respectively. Moreover, the selectivity ratio in data set [1] was 2.15; in [2], 5.02.

`CCN(CC)CCCC(C)Nc1ccnc2cc(Cl)ccc12` (stereo unspecified) [CHLOROQUINE]: in the data set on Mus musculus [15], the Reduction is 100%.

In the case of `NCCC(O)(P(=O)(O)O)P(=O)(O)O` [PAMIDRONIC ACID], in the data set with Entamoeba histolytica, the IC50 is more than 200 µM. The same compound came in with a Reduction with Mus musculus [9] of 5%.

Consider `O=P(O)(O)C(O)(Cc1cccnc1)P(=O)(O)O` [RISEDRONIC ACID], for which the figures for the IC50 (with Entamoeba histolytica; in [8]) were 73.5 µM and more than 3000 µM, respectively.

The values are drawn from ChEMBL document CHEMBL1148279, “Effects of bisphosphonates on the growth of Entamoeba histolytica and Plasmodium species in vitro and in vivo” (J Med Chem, 2004).
